What was measured:
Untransfected cells = test: Radioligand binding assay, untransfected cells
nGPCR-51 = biological target: T1, nGPCR-51 (Homo sapiens, UniProt Q969V1); test: Radioligand saturation binding assay, membranes of cells transiently expressing nGPCR-51
T1 construct: expressed in transfected cells
Procedure: HEK 293 or COS 7 cells transiently expressing nGPCR-51, or CHO K-I cells stable expressing nGPCR-51, were grown to sub-confluence (2 days post-transfection for transients), harvested from flasks in Dulbecco's PBS and pelleted by low speed centrifugation (2500 rpm) for 10 minutes. Cell pellets were homogenized in 10 ml tissue buffer (50 mM Hepes, 10 mM MgCl2, 2 mM EGTA, 1 μg/ml aprotinin, 1 μg/ml leupeptin hemisulfate, 1 μg/ml pepstatin A, pH 7.0) using a dounce, 10 strokes. Homogenate was centrifuged at 47,000× g for 15 minutes. Membrane pellet was resuspended in 1 ml tissue buffer using the dounce, 10 strokes. An aliquot of the membrane preparation was used to determine protein concentration. For measurement of saturation binding, 10 μg of cell membranes were incubated with various concentrations of [^125I] Peptide A (iodinated by routine procedures via the Tyr residue) in 300 μl binding assay buffer (tissue buffer plus 0.15 mM Bacitracin and 0.1% ovalbumin) for 90 minutes at room temperature in 96-well plates. Non-specific binding was defined by the inclusion of 1 μM Peptide A. After the binding incubation, plates were harvested onto GF/C filters presoaked in 0.3% non-fat dry milk. […] Filter plates were then counted in a Packard Topcount™ 96-well microplate scintillation counter. Data were analyzed using GraphPad Prism (San Diego, Calif.) and Kd and Bmax values were calculated.

T1 sequence (Q969V1 whole entry): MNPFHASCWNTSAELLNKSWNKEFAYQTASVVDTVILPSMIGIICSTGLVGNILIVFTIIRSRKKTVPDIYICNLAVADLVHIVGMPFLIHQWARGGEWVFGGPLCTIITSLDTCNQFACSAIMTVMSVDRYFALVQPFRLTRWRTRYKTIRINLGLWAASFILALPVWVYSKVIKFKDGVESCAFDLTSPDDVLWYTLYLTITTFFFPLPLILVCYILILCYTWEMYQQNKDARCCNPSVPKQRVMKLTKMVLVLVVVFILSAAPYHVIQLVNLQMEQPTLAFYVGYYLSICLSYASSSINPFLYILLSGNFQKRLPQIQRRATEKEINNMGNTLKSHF

Bmax (nGPCR-51; COS 7 cells transiently expressing nGPCR-51): 75 finol/mg
estimated Bmax (nGPCR-51; HEK 293 cells transiently expressing nGPCR-51): ~108 fmol/mg
Structure (SMILES): CSCC[C@@H]1NC(=O)[C@@H](NC(=O)[C@H](CCCNC(=N)N)NC(=O)[C@H](CC(C)C)NC(=O)[C@H](CCSC)NC(=O)[C@H](CC(=O)O)NC(=O)[C@H](Cc2ccccc2)NC(=O)[C@@H](N)CC(=O)O)CSSC[C@@H](C(=O)N[C@@H](Cc2c[nH]c3ccccc23)C(=O)N[C@@H](CCC(N)=O)C(=O)N[C@H](C(=O)O)C(C)C)NC(=O)[C@@H]2CCCN2C(=O)[C@H](CCCNC(=N)N)NC(=O)[C@H](Cc2ccc(O)c(I)c2)NC(=O)[C@H](C(C)C)NC(=O)[C@H](CCCNC(=N)N)NC(=O)CNC(=O)[C@H](CC(C)C)NC1=O [[^125I] Peptide A]
specific radioligand binding (Untransfected cells): no specific radioligand binding

From patent publication US20030003451A1, “Novel G protein-coupled receptors” (priority 2000, published 2003)
